Test results from patent US6696433B2, “Use of sex steroids function modulators to treat wounds and fibrotic disorders” (Renovo Limited, priority 1996, dated 2004).
Marks after values point to notes of the source that are not given here.

Columns and labels:
Human dermal fibroblasts = test: Fibroblast proliferation, [3H] thymidine incorporation; assay type: cell-based; details: for proliferation of fibroblasts: doses 1 pM to 1 mM, 24 hrs, fibroblasts from young and aged subjects, compared to cyclodextrin controls
Experimental: Human dermal fibroblasts were explanted from the 4 mm punch biopsy specimens of normal skin. Fibroblasts used in the study were cultured at 37° C. in 95% air; 5% CO2 at 100% relative humidity, in phenol red-free DMEM (Gibco), 100 U/ml penicillin, […], 1 mM sodium pyruvate, 2 mM L-glutamine, non-essential amino acids and charcoal-stripped 10% FCS (Gibco, UK) (to remove endogenous steroids).
Cultured cells at passage 3-5 were seeded overnight in 24-well plates at a density of 2×10^5 cells per well in serum free media. The following morning oestrogen or progesterone (made soluble by the incorporation of the carrier cyclodextrin; Sigma, Poole), ranging from 1 pM to 1 mM doses, were added to the medium for 24 hrs. All samples were assessed in triplicate. The media was removed after the 24 hr incubation. 1 mg/ml of aprotinin, leupeptin and pepstatin A was then added to the media which was used immediately in a TGF-β assay (see below). Controls included cyclodextrin at the appropriate concentration, and serum-free medium alone.
The cells were then incubated with [^3H] thymidine in serum-free medium (0.5 μCi/well) to assess the effect of oestrogen or progesterone on fibroblast proliferation. After 24 hrs, the thymidine solution was aspirated and replaced by 10% TCA for 4 hrs at 4° C. The TCA was replaced by 250 μls 1M NaOH solution for 18 hrs. Two 100 μl aliquots from each well were measured for radioactivity in a scintillation counter. In parallel experiments, the effect of hormones/controls on protein synthesis was investigated by the addition of 20 μg/ml cycloheximde (to inhibit protein translation) for 15 mins prior to the 24 hr incubation period.

[1] = tested on: 4 mm punch biopsy wounds of the upper inner arm; test: Topical oestrogen patch clinical trial of wound healing in elderly men and women; assay type: in vivo, human; design: key to Collagen Quantities: +=minimal quantities; ++=less than normal skin; +++=similar to normal skin; ++++=greater than normal skin; details: for Collagen Quantities: oestradiol patch, DAY 7; for % Rate of re-epithelialisation / Wound area: day 7 post-wounding; for scarring, microscopically and macroscopically (FIGS. 7 and 8): scored as in 2.1.4.2
Experimental: Approval for this study was given by the local Ethics Committee. Forty health-status defined volunteers split into four groups: (i) GROUP 3A comprised ten women with mean age 76.3 yr (Sd 5.6) who received oestrogen supplements (25 μg/24 hrs of oestradiol) (ii) GROUP 3B comprised ten women with mean age 72.5 yr (Sd 7.1) who received placebo instead of oestrogen. (iii) GROUP 3C comprised ten men with mean age 69.6 yr (Sd 3.6) who received oestrogen supplements (ii) GROUP 3D comprised ten men with mean age 71.8 yr (Sd 8.9) who received placebo instead of oestrogen. After informed consent subjects from each of Groups 3A, 3B, 3C and 3D underwent two 4 mm punch biopsies from the upper inner arm (a non sun-exposed site) following local infiltration with 1 ml 1% lignocaine. Each biopsy of normal skin was bisected and one-half embedded in Optimal Cutting Temperature compound (Miles Inc. Elkhart, Ind.), frozen over liquid nitrogen, and stored at −70° C., and one-half snap-frozen in liquid nitrogen and stored at −70° C. The area for biopsy was covered by a 2×3 cm patch (placebo Groups 3B and 3D or active oestradiol 3A and 3C) through which the biopsies were made. The patch was covered by a Multisorb dry gauze dressing (Smith & Nephew) and both were removed after 24 hrs. The active patches contained sufficient oestradiol such that the wound sites were exposed to 25 μg/24 hrs of oestradiol. Five subjects from Groups 3A, 3B, 3C and 3D underwent re-excision of the wounds at day 7 post-wounding, and the other five subjects from each group at day 84 post-wounding. The left upper inner arm was cleaned with isopropyl alcohol, elliptical excisions of the wounds were made following 1% lignocaine infiltration and two sutures were used to close the gap. Each wound was bisected and processed as described above (3.1.3). 7 μm paraffin-embedded sections were strained with H&E and Masson's Trichrome. The rate of re-epithelialisation (at day 7 post-wounding), and wound sizes as determined by planimetry, were determined with image analysis using an Olympus Vanox camera and PC image capture system. Collagen quantity within the wound was determined by two observers blinded to the identity of the specimen on the following scale +=minimal quantities; ++=less than normal skin; +++=similar to normal skin; ++++=greater than normal skin. The wound stiffness at day 80 was determined using the non-disruptive Dimensional Analysis System (Das). Previous studies have correlated wound breaking strength values (ultimate pressure at failure) to wound stiffness using this system. The system applies a multiaxial load (negative pressure) to the wound and measures the deformation due to the load of two reflective targets placed at the wound edges, using a high resolution camera and video processor. Pressure was applied to a maximum of 100 mmHg and then released, Stiffness was measured between 20 and 80 mmHg.

[2] = FEMALES (3A), patch 25 μg/24 hrs of oestradiol for 24 hrs
[3] = MALES (3C), patch 25 μg/24 hrs of oestradiol for 24 hrs

| SMILES | proliferation of fibroblasts (Human dermal fibroblasts) | Collagen Quantities ([1]; FEMALES (3A)) | % Rate of re-epithelialisation [1, 2] | Wound area [1, 2] | Collagen Quantities ([1]; MALES (3C)) | % Rate of re-epithelialisation [1, 3] | Wound area [1, 3] | Wound area ([1]; oestrogen treatment, p<0.05) | Wound stiffness (Dimensional Analysis System) ([1]; day 80 post-wounding) | rate of re-epithelialization ([1]; female (3A) and male subjects (3C) relative to placebo controls) | scarring, microscopically and macroscopically (FIGS. 7 and 8) [1] | degree of inhibition of fibroblast proliferation relative to oestrogen (Human dermal fibroblasts; at 1 mM, p<0.05) |
| --- | --- | --- | --- | --- | --- | --- | --- | --- | --- | --- | --- | --- |
| C[C@]12CC[C@@H]3c4ccc(O)cc4CC[C@H]3[C@@H]1CC[C@@H]2O [Oestrogen] | inhibited | ++ | 74.5 (10.5)* % | 1204 (49)* | ++ | 62.5 (21.7) % | 1173 (61)* | significantly reduced | not affected | accelerated | inferior quality of wound | – |
| CC(=O)[C@H]1CC[C@H]2[C@@H]3CCC4=CC(=O)CC[C@]4(C)[C@H]3CC[C@]12C [Progesterone, progesterone] | inhibited | – | – | – | – | – | – | – | – | – | superior scaring | significantly greater degree than oestrogen |
